{"source": "patent US7557145B2", "about": "“Inhibition of the asexual reproduction of fungi by eugenol and/or derivatives thereof” (Henkel Kommanditgesellschaft auf Aktien (Henkel KGAA), priority 2003, dated 2009)", "assay_type_in_all_cases": "cell-based", "key": {"[1]": {"tested_on": "Aspergillus niger (DSM 1988)", "experiment": "Sporulation of Aspergillus niger on wort agar plates containing active component", "experimental": "Effect of Eugenol and Eugenol Silicic Acid Esters on the Sporulation of Aspergillus niger\nContamination of the surface of wort agar plates with 100 μl of a germ suspension (10^3 CFU/ml) of Aspergillus niger (DSM 1988). Various quantities of active component (solutions in ethanol, final concentrations in % by weight, see Table) were added to the agar plates beforehand. The plates were incubated for 3 days at 25° C. Sporulation was visually evaluated and the sporulation rate in [%] was determined. […]"}, "[2]": {"tested_on": "Aspergillus niger, DSM 1988", "experiment": "Sporulation of Aspergillus niger on the surface of an acetate jointing compound", "experimental": "Effect on Eugenol on the Sporulation of Aspergillis niger on the Surface of an Acetate Jointing Compound\nCommercially available, but preservative-free, one-component silicone jointing compounds curing at room temperature (acetate system, cured 2.2×2.2×0.3 cm pieces of film) were disinfected with 70% EtOH (ethanol) and placed for 24 h in active component solutions with various concentrations (in ethanol, see Table for final concentrations). The test specimens were then re-washed twice with EtOH, rinsed with water (sterile) and dried for 24 h. The test specimens were weighed before and after this treatment and the quantity of active component in the test specimens was thus determined together with the concentration of the active component solution. The test specimens were then placed on wort agar plates and thinly coated with agar in which fungal spores had been incorporated (10^5 CFU/ml Aspergillus niger, DSM 1988). The plates were incubated for 3 days at 25° C. Sporulation was visually evaluated from the test specimens and the sporulation rate in [%] was determined."}, "[3]": {"tested_on": "Aspergillus niger (DSM 1988)", "experiment": "Sporulation of Aspergillus niger on a filter surface after 2 applications", "conditions": "for Sporulation [%]: filter paper treated twice with 50 μl, 3 days at 25° C.", "experimental": "Effect of Eugenol on the Sporulation of Aspergillus niger on a Filter Surface After 2 Applications\nFilter papers (2×2 cm) were disinfected and treated twice with a 1 hour interval with 50 μl of active-component solutions differing in concentration. The test specimens were then dried. The test specimens were then placed on wort agar plates and the surface of the wort agar plates was contaminated with 100 μl of a germ suspension (10^3 CFU/ml) of Aspergillus niger (DSM 1988). The plates were incubated for 3 days at 25° C. Sporulation was visually evaluated and the sporulation rate in [%] was determined. […] Sporulation was inhibited by increasing concentrations of eugenol and was 90% suppressed at 90 μm."}}, "data": [{"smiles": "C=CCc1ccc(O)c(OC)c1", "note": "[eugenol, 4-allyl-2-methoxyphenol]", "values": [{"measurement": "Sporulation [%]", "setting": "[1]; concentration of eugenol 4 μm in wort agar, 3 days at 25° C., visually evaluated", "result": 100, "unit": "%"}, {"measurement": "Sporulation [%]", "setting": "[1]; concentration of eugenol 40 μm in wort agar, 3 days at 25° C.", "result": 100, "unit": "%"}, {"measurement": "Sporulation [%]", "setting": "[1]; concentration of eugenol 65 μm in wort agar, 3 days at 25° C.", "result": 100, "unit": "%"}, {"measurement": "Sporulation [%]", "setting": "[1]; concentration of eugenol 90 μm in wort agar, 3 days at 25° C.", "result": 80, "unit": "%"}, {"measurement": "Sporulation [%]", "setting": "[1]; concentration of eugenol 110 μm in wort agar, 3 days at 25° C.", "result": 70, "unit": "%"}, {"measurement": "Sporulation [%]", "setting": "[1]; concentration of eugenol 220 μm in wort agar, 3 days at 25° C.", "result": 0, "unit": "%"}, {"measurement": "Sporulation [%]", "setting": "[1]; concentration of eugenol 330 μm in wort agar, 3 days at 25° C.", "result": 0, "unit": "%"}, {"measurement": "Sporulation [%]", "setting": "[1]; concentration of eugenol 650 μm in wort agar, 3 days at 25° C.", "result": 0, "unit": "%"}, {"measurement": "Concentration at which sporulation was completely suppressed", "setting": "[1]; wort agar plates, 3 days at 25° C.", "result": 220, "unit": "µM"}, {"measurement": "Sporulation [%]", "setting": "[2]; concentration of eugenol 1.7 μm/g jointing compound, 3 days at 25° C.", "result": 0, "unit": "%"}, {"measurement": "Sporulation [%]", "setting": "[2]; concentration of eugenol <1 μm/g jointing compound, 3 days at 25° C.", "result": 100, "unit": "%"}, {"measurement": "Sporulation [%]", "setting": "[2]; concentration of eugenol ca. 3 μm/g jointing compound, 3 days at 25° C.", "result": 0, "unit": "%"}, {"measurement": "Concentration at which sporulation was completely suppressed", "setting": "[2]; silicone jointing compound (acetate system), 3 days at 25° C.", "result": 1.7, "unit": "μm/g jointing compound"}, {"measurement": "Sporulation suppressed", "setting": "[3]; at 90 μm, filter surface after 2 applications", "result": 90, "unit": "%"}, {"measurement": "Sporulation [%]", "setting": "[3]; concentration 0.6 μm", "result": 100, "unit": "%"}, {"measurement": "Sporulation [%]", "setting": "[3]; concentration 6 μm", "result": 100, "unit": "%"}, {"measurement": "Sporulation [%]", "setting": "[3]; concentration 30 μm", "result": 100, "unit": "%"}, {"measurement": "Sporulation [%]", "setting": "[3]; concentration 45 μm", "result": 100, "unit": "%"}, {"measurement": "Sporulation [%]", "setting": "[3]; concentration 60 μm", "result": 100, "unit": "%"}, {"measurement": "Sporulation [%]", "setting": "[3]; concentration 90 μm", "result": 10, "unit": "%"}, {"measurement": "Sporulation [%]", "setting": "[3]; concentration 120 μm", "result": 10, "unit": "%"}]}, {"smiles": "CC(C)=CCCC(C)=CCCC(C)=CCO", "note": "[farnesol, reference compound]", "values": [{"measurement": "Sporulation [%]", "setting": "[1]; comparison test, concentration of farnesol 125 μm", "result": 50, "unit": "%"}, {"measurement": "Sporulation [%]", "setting": "[2]; concentration of farnesol 0.4 μm/g jointing compound, 3 days at 25° C.", "result": 100, "unit": "%"}, {"measurement": "Sporulation [%]", "setting": "[2]; concentration of farnesol 1.1 μm/g jointing compound, 3 days at 25° C.", "result": 100, "unit": "%"}, {"measurement": "Sporulation [%]", "setting": "[2]; concentration of farnesol 17 μm/g jointing compound, 3 days at 25° C.", "result": 30, "unit": "%"}, {"measurement": "Inhibition of sporulation compared with eugenol", "setting": "[2]; parallel test series, identical concentrations", "result": "inhibited, but to a far lesser extent compared with identical concentrations of eugenol"}, {"measurement": "Sporulation [%]", "setting": "[3]; concentration 0.5 μm", "result": 100, "unit": "%"}, {"measurement": "Sporulation [%]", "setting": "[3]; concentration 5 μm", "result": 100, "unit": "%"}, {"measurement": "Sporulation [%]", "setting": "[3]; concentration 25 μm", "result": 100, "unit": "%"}, {"measurement": "Sporulation [%]", "setting": "[3]; concentration 35 μm", "result": 60, "unit": "%"}, {"measurement": "Sporulation [%]", "setting": "[3]; concentration 50 μm", "result": 80, "unit": "%"}, {"measurement": "Sporulation [%]", "setting": "[3]; concentration 70 μm", "result": 50, "unit": "%"}, {"measurement": "Sporulation [%]", "setting": "[3]; concentration 90 μm", "result": 40, "unit": "%"}, {"measurement": "Inhibition of sporulation compared with eugenol", "setting": "[3]; second, parallel test series, identical concentrations", "result": "inhibited, but to a lesser extent compared with identical concentrations of eugenol"}]}]}
